The text below walks through data of PMC11266321 (EJNMMI Radiopharmacy and Chemistry, 2024).

Each structure is given as a SMILES string. Some results are limits rather than exact numbers.

The target of one data set is T1, Serotonin 5HT2A (Homo sapiens, UniProt P28223).
T1 construct: Sekisui Medical (contract laboratory that ran the panel)
The data set is described as follows: Radioligand binding inhibition, Serotonin 5HT2A. To be noted: 10 µM; radioligand [^3H]Ketanserin; mean of duplicate. The protocol: (§1) Interaction of MMP with 28 binding sites was examined, including major classes of neurotransmitter receptor, uptake system, and ion channels (Sekisui Medical, Naka, Japan). MMP was tested in all assays at 10 µM. […] 10.2.3 (GraphPad Software, San Diego, CA). Each determination was made in duplicate.
(§2) Test substance concentration : 10 µM, positive substance concentration : 10 µM
(§3) Data are expressed as the mean values of duplicate samples.
(§4) The % inhibition was calculated from “100 – binding ratio”.
(§5) Binding ratio: [(B - N) / (B0 - N)] × 100 (%)
(§6) B: Bound radioactivity in the presence of test substance and positive substance (individual value)
(§7) B0: Total bound radioactivity in the absence of test substance and positive substance (mean value)
(§8) N: Non-specific bound radioactivity (mean value)

The subject of data set [1] is other brain neuroreceptors. The data set is described as follows: Receptor selectivity panel, other binding sites. To be noted: 10 µM; binding sites other than sigma. The protocol:
as §1

Data set [2] deals with Salmonella typhimurium (TA98, TA100, TA1535, and TA1537). Description: Ames test (reverse bacterial mutation test), Salmonella. To be noted: with and without S9 mixture, 78.1–5000 µg/plate. The class given is cell-based. An excerpt: The MMP was custom synthesized by the Nard Institute (Kobe, Japan) using methods described previously (Toyohara et al. [2020a]). All other chemical reagents were obtained from commercial sources. Male ddY mice were obtained from Japan SLC (Hamamatsu, Japan). Sprague–Dawley rats [Crl: CD(SD)] were obtained from […] (Yokohama, Japan). Animal studies were approved by the Animal Care and Use Committee of the Tokyo Metropolitan Institute for Geriatrics and Gerontology (Approval Nos. 22,015 and 23,007) and Nihon Bioresearch (Hashima, Japan; Approval Nos. 430,085 and 430,086). Acute toxicity studies were performed under the “Revisions of the Guidelines for Single and Repeated Dose Toxicity Studies” (PMDA, 1993). Ames test was performed under the “Guidance on Genotoxicity Testing and Data Interpretation for Pharmaceuticals Intended for Human Use” (PMDA, 2012).
Mutagenicity tests were performed at the Hashima Research Center, Nihon Bioresearch, under non-GLP control. MMP was tested for mutagenicity by the Ames test with four histidine-requiring strains of Salmonella typhimurium (TA98, TA100, TA1535, and TA1537) and one strain of Escherichia coli (WP2uvrA), with and without the S9 mixture, at a dose range of 78.1–5000 µg/plate according to the standard method.

Another data set deals with T2, Histamine H2 (Homo sapiens, UniProt P25021).
T2 construct: Sekisui Medical (contract laboratory)
T2 sequence (P25021 whole entry): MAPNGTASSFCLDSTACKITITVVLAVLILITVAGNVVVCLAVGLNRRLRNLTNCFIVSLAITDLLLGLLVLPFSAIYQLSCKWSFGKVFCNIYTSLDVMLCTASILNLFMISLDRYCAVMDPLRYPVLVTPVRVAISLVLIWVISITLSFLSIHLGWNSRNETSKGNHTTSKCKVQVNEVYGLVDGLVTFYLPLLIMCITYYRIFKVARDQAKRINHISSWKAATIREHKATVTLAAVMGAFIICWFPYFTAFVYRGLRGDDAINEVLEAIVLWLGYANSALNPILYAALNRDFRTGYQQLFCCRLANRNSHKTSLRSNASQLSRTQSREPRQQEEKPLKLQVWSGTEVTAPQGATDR
Description: Radioligand binding inhibition, Histamine H2. The settings on record: 10 µM; radioligand [^125I]Iodoaminopotentidine; mean of duplicate. The protocol: as §1, §2, §3, §4, §5, §6, §7, §8

The target of another data set is T3, Histamine H1 (central) (Homo sapiens, UniProt P35367).
T3 construct: Sekisui Medical (contract laboratory)
T3 sequence (P35367 whole entry): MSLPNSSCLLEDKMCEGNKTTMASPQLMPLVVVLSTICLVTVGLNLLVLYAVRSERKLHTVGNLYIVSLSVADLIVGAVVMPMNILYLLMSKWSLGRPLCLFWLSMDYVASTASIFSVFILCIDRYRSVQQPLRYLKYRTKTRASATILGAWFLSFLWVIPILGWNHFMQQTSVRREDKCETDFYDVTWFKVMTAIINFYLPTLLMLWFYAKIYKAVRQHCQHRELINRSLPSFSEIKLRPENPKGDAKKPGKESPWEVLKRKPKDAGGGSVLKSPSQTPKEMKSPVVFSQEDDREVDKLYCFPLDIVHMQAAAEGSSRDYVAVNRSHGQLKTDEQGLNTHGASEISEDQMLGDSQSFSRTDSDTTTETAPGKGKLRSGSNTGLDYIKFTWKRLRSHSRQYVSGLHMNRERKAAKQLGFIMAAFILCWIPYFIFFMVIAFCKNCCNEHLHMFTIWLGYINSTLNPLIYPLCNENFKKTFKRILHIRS
The class given is binding. To be noted: 10 µM; radioligand [^3H]Pyrilamine; mean of duplicate.

Another data set has as its target T4, Serotonin 5HT1A (Homo sapiens, UniProt P08908).
T4 construct: Sekisui Medical (contract laboratory)
The data set is described as follows: Radioligand binding inhibition, Serotonin 5HT1A. To be noted: 10 µM; radioligand [^3H]8-OH DPAT; mean of duplicate. The protocol:
as §1, §2, §3, §4, §5, §6, §7, §8

The target of data set [3] is T5, Glutamate (NMDA glycine site) (Homo sapiens, UniProt Q05586).
T5 construct: Sekisui Medical (contract laboratory)
The data set is described as follows: Radioligand binding inhibition, Glutamate NMDA glycine site. To be noted: 10 µM; radioligand [^3H]MDL105,519; mean of duplicate. On the procedure:
as §1, §2, §3, §4, §5, §6, §7, §8

Another data set relates to Nicotinic (neuronal). The class given is binding. The settings on record: 10 µM; radioligand [^3H]Cytisine; mean of duplicate.
A further data set has as its target T6, Dopamine D2 (Homo sapiens, UniProt P14416).
T6 construct: Sekisui Medical (contract laboratory)
Description: Radioligand binding inhibition, Dopamine D2. To be noted: 10 µM; radioligand [^3H]Spiperone; mean of duplicate. The protocol: as §1, §2, §3, §4, §5, §6, §7, §8

Another data set deals with T7, GABA B (Homo sapiens, UniProt Q9UBS5).
T7 construct: Sekisui Medical (contract laboratory)
T7 sequence (Q9UBS5 15-961 limits assumed): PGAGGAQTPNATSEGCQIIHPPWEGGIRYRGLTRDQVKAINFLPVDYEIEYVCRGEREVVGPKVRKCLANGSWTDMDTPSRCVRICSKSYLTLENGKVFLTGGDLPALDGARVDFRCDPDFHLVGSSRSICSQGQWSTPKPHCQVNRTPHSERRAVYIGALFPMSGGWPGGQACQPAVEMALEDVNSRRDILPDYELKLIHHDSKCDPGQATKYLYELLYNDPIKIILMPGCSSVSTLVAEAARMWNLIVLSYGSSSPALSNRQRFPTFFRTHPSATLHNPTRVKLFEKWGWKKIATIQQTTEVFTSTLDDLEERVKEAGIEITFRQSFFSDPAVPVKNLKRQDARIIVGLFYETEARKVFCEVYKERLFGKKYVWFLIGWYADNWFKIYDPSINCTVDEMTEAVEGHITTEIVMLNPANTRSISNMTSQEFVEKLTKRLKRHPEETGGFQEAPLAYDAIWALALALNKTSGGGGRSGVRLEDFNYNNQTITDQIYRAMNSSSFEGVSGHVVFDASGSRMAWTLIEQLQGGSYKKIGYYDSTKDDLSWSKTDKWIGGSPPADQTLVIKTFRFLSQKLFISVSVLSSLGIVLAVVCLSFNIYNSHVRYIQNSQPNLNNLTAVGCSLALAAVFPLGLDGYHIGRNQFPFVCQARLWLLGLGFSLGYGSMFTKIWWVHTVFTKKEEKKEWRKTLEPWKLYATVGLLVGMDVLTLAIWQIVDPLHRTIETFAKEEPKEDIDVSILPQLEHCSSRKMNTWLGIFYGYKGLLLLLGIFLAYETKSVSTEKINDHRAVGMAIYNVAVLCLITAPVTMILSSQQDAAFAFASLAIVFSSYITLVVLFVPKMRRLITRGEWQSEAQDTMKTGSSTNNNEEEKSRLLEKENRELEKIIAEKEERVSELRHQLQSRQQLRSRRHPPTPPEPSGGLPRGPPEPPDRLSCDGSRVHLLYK
T7 sequence (O75899 42-941 partner): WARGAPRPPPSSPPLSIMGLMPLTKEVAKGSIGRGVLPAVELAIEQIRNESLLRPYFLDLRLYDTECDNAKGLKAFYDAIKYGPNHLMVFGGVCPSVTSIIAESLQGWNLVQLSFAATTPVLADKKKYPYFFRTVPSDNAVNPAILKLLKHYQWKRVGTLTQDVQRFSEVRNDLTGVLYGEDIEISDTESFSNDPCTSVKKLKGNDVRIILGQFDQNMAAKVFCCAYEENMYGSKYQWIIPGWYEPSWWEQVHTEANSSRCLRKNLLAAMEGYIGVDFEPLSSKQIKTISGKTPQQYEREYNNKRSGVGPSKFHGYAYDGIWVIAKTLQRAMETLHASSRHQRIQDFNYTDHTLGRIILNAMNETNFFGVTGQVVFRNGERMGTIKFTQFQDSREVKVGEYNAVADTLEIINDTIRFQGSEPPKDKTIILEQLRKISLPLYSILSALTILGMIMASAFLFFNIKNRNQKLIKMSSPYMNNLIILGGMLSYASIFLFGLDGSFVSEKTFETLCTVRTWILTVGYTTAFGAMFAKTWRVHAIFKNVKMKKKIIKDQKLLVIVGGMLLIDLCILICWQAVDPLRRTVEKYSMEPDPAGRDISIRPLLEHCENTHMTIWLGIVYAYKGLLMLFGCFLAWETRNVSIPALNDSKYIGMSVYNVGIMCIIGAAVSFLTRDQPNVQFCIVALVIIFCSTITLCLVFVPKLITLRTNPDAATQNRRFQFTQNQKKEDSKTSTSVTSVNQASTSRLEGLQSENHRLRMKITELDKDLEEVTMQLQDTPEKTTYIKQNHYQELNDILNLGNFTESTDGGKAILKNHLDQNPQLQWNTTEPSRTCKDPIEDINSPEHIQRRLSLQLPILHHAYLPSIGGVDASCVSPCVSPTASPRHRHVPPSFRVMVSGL
Description: Radioligand binding inhibition, GABA B. The settings on record: 10 µM; radioligand [^3H]GABA; mean of duplicate. The protocol:
(§9) Interaction of MMP with 28 binding sites was examined, including major classes of neurotransmitter receptor, uptake system, and ion channels (Sekisui Medical, Naka, Japan). MMP was tested in all assays at 10 µM. […] Each determination was made in duplicate.
as §2, §3, §4, §5, §6, §7, §8

Data set [4] deals with α1-Adrenergic (non-selective). The data set is described as follows: Radioligand binding inhibition, α1-Adrenergic. The settings on record: 10 µM; radioligand [^3H]Prazosin; mean of duplicate.
In a further data set the target is T8, Histamine H3 (Homo sapiens, UniProt Q9Y5N1).
T8 construct: Sekisui Medical (contract laboratory)
T8 sequence (Q9Y5N1 whole entry): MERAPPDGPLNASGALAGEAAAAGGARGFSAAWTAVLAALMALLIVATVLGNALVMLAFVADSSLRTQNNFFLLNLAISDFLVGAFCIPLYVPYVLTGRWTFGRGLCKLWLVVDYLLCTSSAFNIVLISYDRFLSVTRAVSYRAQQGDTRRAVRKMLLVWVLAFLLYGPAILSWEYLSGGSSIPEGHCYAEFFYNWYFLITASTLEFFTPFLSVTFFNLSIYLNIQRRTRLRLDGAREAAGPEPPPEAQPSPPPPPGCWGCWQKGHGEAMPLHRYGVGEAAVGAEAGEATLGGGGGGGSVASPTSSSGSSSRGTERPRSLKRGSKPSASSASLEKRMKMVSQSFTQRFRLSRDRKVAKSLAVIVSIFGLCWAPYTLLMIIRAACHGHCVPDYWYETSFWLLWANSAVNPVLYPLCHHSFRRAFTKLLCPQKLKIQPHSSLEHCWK
Description: Radioligand binding inhibition, Histamine H3. The settings on record: 10 µM; radioligand [^3H]N-methyl-histamine; mean of duplicate. On the procedure:
as §9, §2, §3, §4, §5, §6, §7, §8

The target in the next data set is T9, Muscarinic M1 (Homo sapiens, UniProt P11229).
T9 construct: Sekisui Medical (contract laboratory)
The class given is binding. To be noted: 10 µM; radioligand [^3H]Pirenzepine; mean of duplicate.

Another data set addresses T10, Muscarinic M2 (Homo sapiens, UniProt P08172).
T10 construct: Sekisui Medical (contract laboratory)
Description: Radioligand binding inhibition, Muscarinic M2. The settings on record: 10 µM; radioligand [^3H]AF-DX384; mean of duplicate. The protocol:
as §9, §2, §3, §4, §5, §6, §7, §8

The test system of data set [5] is α2-Adrenergic (non-selective). Description: Radioligand binding inhibition, α2-Adrenergic. The settings on record: 10 µM; radioligand [^3H]Rauwolscine; mean of duplicate. On the procedure:
as §1, §2, §3, §4, §5, §6, §7, §8

The next data set has as its target T11, Serotonin 5HT3 (human) (Homo sapiens, UniProt P46098).
T11 construct: Sekisui Medical (contract laboratory that ran the panel)
Description: Radioligand binding inhibition, Serotonin 5HT3. To be noted: 10 µM; radioligand [^3H]GR65630; mean of duplicate. The protocol: as §1, §2, §3, §4, §5, §6, §7, §8

T4 sequence (P08908 whole entry): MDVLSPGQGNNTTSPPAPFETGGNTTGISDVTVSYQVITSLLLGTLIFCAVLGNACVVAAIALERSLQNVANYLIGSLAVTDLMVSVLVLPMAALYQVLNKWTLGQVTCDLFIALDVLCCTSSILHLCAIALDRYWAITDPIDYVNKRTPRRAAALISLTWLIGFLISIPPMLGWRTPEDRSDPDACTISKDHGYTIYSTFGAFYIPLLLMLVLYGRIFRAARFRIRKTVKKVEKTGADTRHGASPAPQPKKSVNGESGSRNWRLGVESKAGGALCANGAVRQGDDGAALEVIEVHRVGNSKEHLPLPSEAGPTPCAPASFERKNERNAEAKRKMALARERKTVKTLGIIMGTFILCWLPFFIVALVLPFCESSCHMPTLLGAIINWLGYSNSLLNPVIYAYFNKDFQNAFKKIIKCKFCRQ
T11 sequence (P46098 24-478): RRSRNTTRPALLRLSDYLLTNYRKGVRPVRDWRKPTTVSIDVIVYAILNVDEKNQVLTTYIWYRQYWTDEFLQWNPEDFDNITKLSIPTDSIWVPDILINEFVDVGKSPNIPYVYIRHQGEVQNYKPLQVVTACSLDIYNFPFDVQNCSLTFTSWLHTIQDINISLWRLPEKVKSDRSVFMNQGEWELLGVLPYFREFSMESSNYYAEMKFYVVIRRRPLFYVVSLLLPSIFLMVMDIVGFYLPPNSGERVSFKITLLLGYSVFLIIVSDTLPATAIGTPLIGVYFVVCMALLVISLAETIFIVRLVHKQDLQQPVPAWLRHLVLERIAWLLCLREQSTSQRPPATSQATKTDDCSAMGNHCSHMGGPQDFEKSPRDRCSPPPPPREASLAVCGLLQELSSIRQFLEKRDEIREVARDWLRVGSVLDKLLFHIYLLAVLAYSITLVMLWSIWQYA
T10 sequence (P08172 whole entry): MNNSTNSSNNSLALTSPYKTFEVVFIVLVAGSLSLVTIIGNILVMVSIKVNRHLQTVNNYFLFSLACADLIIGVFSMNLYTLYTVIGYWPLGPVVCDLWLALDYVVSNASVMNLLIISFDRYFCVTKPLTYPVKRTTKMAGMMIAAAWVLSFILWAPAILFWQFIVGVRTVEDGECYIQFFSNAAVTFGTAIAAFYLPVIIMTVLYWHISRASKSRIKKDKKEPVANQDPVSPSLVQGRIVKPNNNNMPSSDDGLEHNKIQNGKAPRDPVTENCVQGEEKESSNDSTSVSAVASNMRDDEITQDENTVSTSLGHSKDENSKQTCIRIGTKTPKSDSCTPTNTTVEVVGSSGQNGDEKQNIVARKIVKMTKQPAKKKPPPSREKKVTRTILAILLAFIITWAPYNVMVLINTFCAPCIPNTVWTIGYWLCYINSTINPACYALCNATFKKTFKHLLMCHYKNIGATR
T1 sequence (P28223 whole entry): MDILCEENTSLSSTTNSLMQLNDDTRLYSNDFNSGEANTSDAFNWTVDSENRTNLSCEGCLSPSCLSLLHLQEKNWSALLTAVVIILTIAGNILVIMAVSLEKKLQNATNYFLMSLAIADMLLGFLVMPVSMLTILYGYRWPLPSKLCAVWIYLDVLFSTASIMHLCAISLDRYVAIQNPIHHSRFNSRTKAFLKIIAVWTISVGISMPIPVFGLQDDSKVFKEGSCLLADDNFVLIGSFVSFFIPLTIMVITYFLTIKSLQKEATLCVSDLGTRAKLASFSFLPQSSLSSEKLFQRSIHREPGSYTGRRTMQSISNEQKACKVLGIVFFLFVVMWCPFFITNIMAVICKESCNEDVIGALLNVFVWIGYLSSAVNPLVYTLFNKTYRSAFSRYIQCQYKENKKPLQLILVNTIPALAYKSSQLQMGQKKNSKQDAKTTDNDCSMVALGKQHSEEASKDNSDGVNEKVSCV

For the compound `Cc1ccc(CC(C)NC(C)C)cc1` (stereo not shown) [MMP, N-isopropyl-p-methylamphetamine], the “Inhibition ratio (%)” value is reported as 24.12% on Serotonin 5HT2A; 14.43% on Histamine H2; 11.97% on Histamine H1 (central); 15.84% at Serotonin 5HT1A; 0.22% in data set [3]; 0.00% with Nicotinic (neuronal). Besides, the “Inhibition ratio (%)” value at Dopamine D2 was 6.04%; on GABA B, 1.59%; in [4], 44.47%; on Histamine H3, 3.82%; at Muscarinic M1 it was 27.81%; on Muscarinic M2, 23.38%. The “Inhibition ratio (%)” value in data set [5] turned out to be 42.47%; on Serotonin 5HT3 (human), 0.91%. In data set [1], the “inhibition, other brain neuroreceptors” value is given as below 50%. For the same compound, the mutagenic activity result in data set [2] is “no mutagenic activity”.
